The source of these data is patent US20080113347A1, “Method for the in Vitro Diagnosis and Prognosis of Demyelinating Diseases, and for the Development of Drugs Against Demyelinating Diseases” (priority 2003, published 2008).

This experiment has as its system dusp6 gene expression. The experiment in a line: Real time quantitative RT-PCR of dusp6 expression in primary oligodendrocyte cultures. Type of experiment: cell-based, rat. As to conditions: for Experimental dusp6 crossing points (Cp), single replicas: replicas 1 and 2; for Dusp6 overexpression values (Fold Change) with regard to the untreated control, Ratio: standardized to GAPDH. As for the experimental part: The method used consists of reverse transcription of mRNA to cDNA and its subsequent amplification into a LightCycler equipment (Roche), using SYBR Green for the detection of the amplified product. Real time quantification is carried out, and it allows calculating the relative expression of the sequence in different samples in the linear amplification phase of the reaction.
Samples: Primary oligodendrocyte culture samples treated with AMPA were analyzed. The samples came from cultures different from those analyzed with DNA microarrays. 4 cultures were carried out:
control: untreated cultured oligodendrocytes
ampa 2: oligodendrocytes treated for 2 minutes with 10 μM AMPA and collected after treatment
ampa 10: oligodendrocytes treated for 10 minutes with 10 μM AMPA collected after treatment
ampa 15: oligodendrocytes treated for 15 minutes with 10 μM AMPA and collected 60 minutes later.
Real time quantitative RT-PCR. The total RNA of each one of the cultures was obtained by homogenizing the cells in TRIzol® Reagent (Life Technologies) following the supplier's recommendations. The resulting total RNA was cleaned with the RNeasy kit (QIAGEN) (Chomczynski P. et al., Anal. Biochem., 1987, 162: 156; Chomczynski P., Biotechniques, 1993, 15: 532). The total RNA samples were conserved at −80° C. from the moment they were obtained until they were used. The RNA was spectrophotometrically quantified and 5 μg of total RNA were digested with DNase (2 U/μl) of Ambion at a concentration of 2 U per μg of RNA, for 30 minutes at 37° C.
1 μg of RNA treated with DNAse as a starting material was used for the synthesis of the first cDNA strand with the reverse transcriptase enzyme SuperScript™ II RNase (Life Technologies), using an oligo-dT oligonucleotide as a primer which contained the sequence of the promoter of the phage T7 RNA polymerase. Aliquots of cDNA diluted to the working concentration were used.
Synthesized cDNA was amplified using specific primers of the rat dusp6 gene (SEQ ID NO: 1 and SEQ ID NO: 2), and of the gene encoding the rat protein glyceraldehyde 3-phosphate dehydrogenase, Genebank accession number NM_017008 (SEQ ID NO:21 and SEQ ID NO:22). Real time PCR reactions were prepared using the LightCycler-FastStart DNA master SYBR Green I kit (Roche) following the manufacturer's instructions. The amplification program consisted of […] for 10 min (“hot start”) followed by 45 95° C. cycles (denaturation) for 10 seconds, 60° C. (annealing) for 5 seconds, 72° C. (amplification and fluorescence acquisition) for 10 seconds. The melting curve analysis program consisted of a one-pulse cycle of 95° C., 65° C. for 15 seconds, and a 95° C. pulse during the amplification and acquisition step.
First, specificity of the PCR products was determined by analyzing the melting curves. Subsequently, as a relative measurement of gene expression, the ratio between the abundance of dusp6 transcribed mRNAs and the abundance of GAPDH transcribed mRNAS was calculated, and the data of the ratio was standardized in each one of the treated samples on the basis of control sample values. To calculate efficiency of the PCR reactions (dusp6 and GAPDH), a standard curve was constructed for each gene sequence carried out with cDNA serial dilutions. The template cDNA concentrations for the reactions on the standard curve were arbitrarily given the values 2×, 0.5×, 0.2× and 0.02×. The crossing point values for each one of the reactions were used to construct the standard curve: y=m×+b, where m is the slope and b is the intersection point of the line on the axis of ordinates. Starting RNA concentration values in each sample were obtained from the data of the line using the following formula: […]
The change rate at each point was obtained by dividing the concentration values standardized in comparison to the concentration values in the control.

Setting [1] is: 10 μM AMPA 2 minutes, collected after treatment.
Where [2] appears, read: 10 μM AMPA 10 minutes, collected after treatment.
[3] abbreviates: 10 μM AMPA 15 minutes, collected 60 minutes later.

Where “and” joins values, the source holds several entries; their conditions need not be identical. Identical values can stand only once.

On to `Cc1onc(O)c1CC(N)C(=O)O` (stereo not drawn) [AMPA, α-amino-3-hydroxy-5-methyl-4-isoxazolepropionic acid], for which, under setting [1], the “Experimental dusp6 crossing points (Cp), Mean” value was 30.5; the “Experimental dusp6 crossing points (Cp), single replicas” value was 30.46 and 30.54; the “Dusp6 overexpression values (Fold Change) with regard to the untreated control, Ratio” value came to 1.7 fold. For the same molecule, under setting [2], the “Experimental dusp6 crossing points (Cp), Mean” value came out at 32.23; the “Experimental dusp6 crossing points (Cp), single replicas” value is 32.15 and 32.31; the “Dusp6 overexpression values (Fold Change) with regard to the untreated control, Ratio” value stood at 0.9 fold. For the same molecule, under setting [3], the “Experimental dusp6 crossing points (Cp), Mean” value came out at 29.67; the “Experimental dusp6 crossing points (Cp), single replicas” value was 29.73 and 29.61; the “Dusp6 overexpression values (Fold Change) with regard to the untreated control, Ratio” value is 2.7 fold.
